Two compounds from patent US20240269212A1, “HEMP EXTRACT FOR TREATMENT OF PAIN, CANCER AND EPILEPSY IN ANIMALS” (Portland Technology Holdings LLC., priority 2021, published 2024) can be followed below.

Data set [1] in a line: Serum cannabinoid concentrations after 1 and 2 weeks of twice daily dosing (relative steady state). Conditions: for concentration at 6 h: male, beagle, dog, 2 mg/kg, 2 mg/kg twice daily, six hours after the morning dose. Type of data set: in vivo, dog (beagle). The source says: Six intact male beagles all 2 years of age weighing between 18.6 and 22.2 kilograms body weight were housed at the Baker Institute for Animal Health and all procedures were approved by the Cornell University Institutional Animal Care and Use Committee (Protocol 2019-0001). All dogs underwent the fasted treatment trial for a two-week period and were then allowed 2 weeks of washout before beginning the fed stage of the trial which included ¼ of a 13 ounce can of a wet food (PURINA® Pro Plan Savory Chicken and Rice Formula, Nestle Purina, St. Louis, MO) at the time of dosing. Twenty-four hour pharmacokinetic analysis of serum cannabinoid levels was performed on day 1 after a single dose in the fed or fasted state. Then, twice daily dosing of treatment oil at both 7 am and 7 pm was performed on the following days for two weeks, and serum cannabinoids were measured. Prior to the study all dogs had blood drawn for a complete blood count and serum chemistry and again at the end of each phase of the 2 week study. Complete blood counts (white blood cells [WBC], hematocrit, hemoglobin, red blood cells [RBC], neutrophils, lymphocytes, platelets, monocytes, eosinophils, basophils) and serum biochemistry analyses (sodium, potassium, chloride, magnesium, calcium, phosphorus, albumin, total protein, globulin, urea nitrogen, creatinine, alkaline phosphatase [ALP], alanine aminotransferase [ALT], aspartate amino transferase [AST], cholesterol, total bilirubin, glucose and gamma glutamyl transferase [GGT]) were performed at the Cornell University Diagnostic Laboratory. For the fasted and fed portions of the 24 hour pharmacokinetic analysis study the dogs were administered 2 mg/kg body weight of an equal mix of 30 mg/mL CBG and 30 mg/mL CBGA from a hemp extract in a sesame oil base which was tested again at the end of the study showing virtually the same analytical profile. Two milliliters of blood was drawn via jugular venipuncture for all 6 dogs prior to the initial dose (0 hours) and then again at 0.5, 1, 2, 4, 8, 12 and 24 hours. Prior to enrollment all dogs involved in the study were deemed healthy based on physical examination. Behavioral observations were performed 2 hours after morning dosing for each phase of the trial. Behavioral observations were performed on day 1, day 3, day 7, and day 14. Physical and behavioral examinations were performed to assess for adverse events including diarrhea, vomiting, lethargy, somnolence, ataxia, or abnormal behavior within the colony. Due to the potential for CBG/CBGA to affect heart rate, dogs were assessed manually for resting heart rates for 30 seconds and extrapolated to relative beats per minute after initial dosing at time points 0, 1, 2, 4, 12, 24 and 48 hours and again at day 7 and day 14 after morning dosing for both the fed and fasted arms of the study. Serum was also obtained on day 7 and day 14 six hours after the morning dose for further serum cannabinoid measurement to establish relative steady state serum concentrations.
Analysis was performed using an exploratory (fit-for-purpose) method for fast measurement of thirteen cannabinoids and their metabolites at the Toxicology Research Laboratory, University of Illinois at Chicago. The reference standards for CBD and CBDA were obtained from Restek Corporation (Bellefonte, PA); all other reference and internal standards including CBG and CBGA were obtained from Cerilliant Corporation (Round Rock, TX). The concentrations of cannabinoids (CBD, CBDA, 7-COOH Cannabidiol (7-COOH-CBD), THC, THCA, cannabinol (CBN), cannabichromene (CBC), CBG, and CBGA) and their metabolites (7-OH-CBD, 7-COOH-CBD, COOH-THC, and COOH-THC-Glu) in dog sera were determined using high performance liquid chromatography with tandem mass spectrometry (LC-MS/MS) (Nexera X2 and LCMS 8050, Shimadzu Corp., Kyoto, Japan). […]

Data set [2] in a line: Physical and behavioral examinations for adverse events. The conditions noted are these: healthy dogs, oral 2 mg/kg twice daily for 2 weeks. In kind it is in vivo.
Source text: All dogs underwent the fasted treatment trial for a two-week period and were then allowed 2 weeks of washout before beginning the fed stage of the trial which included ¼ of a 13 ounce can of a wet food (PURINA® Pro Plan Savory Chicken and Rice Formula, Nestle Purina, St. Louis, MO) at the time of dosing. […] Prior to the study all dogs had blood drawn for a complete blood count and serum chemistry and again at the end of each phase of the 2 week study. Complete blood counts (white blood cells [WBC], hematocrit, hemoglobin, red blood cells [RBC], neutrophils, lymphocytes, platelets, monocytes, eosinophils, basophils) and serum biochemistry analyses (sodium, potassium, chloride, magnesium, calcium, phosphorus, albumin, total protein, globulin, urea nitrogen, creatinine, alkaline phosphatase [ALP], alanine aminotransferase [ALT], aspartate amino transferase [AST], cholesterol, total bilirubin, glucose and gamma glutamyl transferase [GGT]) were performed at the Cornell University Diagnostic Laboratory. […] Due to the potential for CBG/CBGA to affect heart rate, dogs were assessed manually for resting heart rates for 30 seconds and extrapolated to relative beats per minute after initial dosing at time points 0, 1, 2, 4, 12, 24 and 48 hours and again at day 7 and day 14 after morning dosing for both the fed and fasted arms of the study.
Data set [3] in a line: Manual resting heart rate monitoring. In kind it is in vivo, dog (beagle). The conditions noted are these: initial dosing and two-week period of treatment. The source says: Six intact male beagles all 2 years of age weighing between 18.6 and 22.2 kilograms body weight were housed at the Baker Institute for Animal Health and all procedures were approved by the Cornell University Institutional Animal Care and Use Committee (Protocol 2019-0001). All dogs underwent the fasted treatment trial for a two-week period and were then allowed 2 weeks of washout before beginning the fed stage of the trial which included ¼ of a 13 ounce can of a wet food (PURINA® Pro Plan Savory Chicken and Rice Formula, Nestle Purina, St. Louis, MO) at the time of dosing. Twenty-four hour pharmacokinetic analysis of serum cannabinoid levels was performed on day 1 after a single dose in the fed or fasted state. Then, twice daily dosing of treatment oil at both 7 am and 7 pm was performed on the following days for two weeks, and serum cannabinoids were measured. Prior to the study all dogs had blood drawn for a complete blood count and serum chemistry and again at the end of each phase of the 2 week study. […] Due to the potential for CBG/CBGA to affect heart rate, dogs were assessed manually for resting heart rates for 30 seconds and extrapolated to relative beats per minute after initial dosing at time points 0, 1, 2, 4, 12, 24 and 48 hours and again at day 7 and day 14 after morning dosing for both the fed and fasted arms of the study. […]

On to `CCCCCc1cc(O)c(C/C=C(\C)CCC=C(C)C)c(O)c1` [CBG, cannabigerol], for which the concentration at 6 h in data set [1] (serum, oral, week one, fasted) is 5 ± 3.5 ng/mL; in data set [1] (serum, oral, week one, fed), 12.7 ± 12.3 ng/mL; in data set [1] (serum, oral, week two, fasted) it was 6.1 ± 6 ng/mL; in data set [1] (serum, oral, week two, fed), 9.6 ± 8.4 ng/mL. Moreover, in data set [2], the “Short-term safety (serum biochemistry, blood count, physical exam and heart rate monitoring)” value is listed as “appear to be safe”.

With `CCCCCc1cc(O)c(C/C=C(\C)CCC=C(C)C)c(O)c1C(=O)O` [CBGA, cannabigerolic acid], the concentration at 6 h stood at 437 ± 414 ng/mL in data set [1] (in vivo, week one, fasted); 564 ± 574 ng/mL in data set [1] (in vivo, week one, fed); 260 ± 300 ng/mL in data set [1] (in vivo, week two, fasted); 223 ± 197 ng/mL in data set [1] (in vivo, week two, fed). For the same compound, the “absorption and retention, fold higher than what can be achieved with CBG” value in data set [1] (oral dosing over a 2-week period) is listed as approximately 10 fold. Also, in data set [3], the “Bradycardia upon oral absorption” value was “does not induce bradycardia”. Also, the “Short-term safety (serum biochemistry, blood count, physical exam and heart rate monitoring)” value in data set [2] is on record as “appear to be safe”.
